The term MIC denotes the lowest concentration found to suppress growth. Read a high MIC as weaker potency. One may read the ED50 as the midpoint of the dose-response relation.

The record followed here is EP1222194B1, “7-ACYLAMINO-3-HETEROARYLTHIO-3-CEPHEM CARBOXYLIC ACID ANTIBIOTICS AND PRODRUGS THEREOF” (priority 1999, dated 2001).

The structures appear in SMILES notation. Values after ≈ are worked out from the molar mass of the structure shown.

Series [1] deals with E. coli ATCC25992. As to the kind of experiment: Broth microdilution MIC (NCCLS). In kind it is cell-based. Conditions: Escherichia coli, Mueller-Hinton Broth, 24 h at 35 °C. How it is done:
(§1) Compounds were evaluated for antimicrobial activity against a panel of bacterial strains using a broth microdilution assay performed as recommended by the NCCLS (1). The minimum inhibitory concentration (MIC) was defined as the lowest concentration of drug which prevented the growth of the bacteria. The following 16 organisms constituted the primary panel of evaluation:
(§2) For this primary panel, the assay was performed in Mueller-Hinton Broth (MHB) with a final bacterial inoculum of 5 x 10^5 CFU/mL (from an early-log phase culture) and a final volume of 100 µL. Control drugs, including imipenem, vancomycin, Penicillin G, dicloxacillin (vs. MSSA ATCC29213 only), and new compounds were prepared at a concentration equivalent to 2-fold the desired final concentration. Dilution of compounds were prepared directly in the plates by serial 2-fold dilution using a multichannel pipette. Positive and negative growth control were included in each plate.
(§3) The bacterial inocula were prepared as follows. For each strain one isolated colony was used to inoculate a volume of 8 mL of Mueller-Hinton broth and these cultures were incubated overnight (20h) at 35 °C in a shaking incubator. At the exception of Enterococcus strains, culture were then diluted 1:10 and allowed to grow for an additional one hour at 35 °C in a shaking incubator. The inocula were prepared by diluting the early log-phase (1h) cultures 1:1000 with fresh Mueller-Hinton broth. E. faecium and E. faecalis were prepared by diluting overnight cultures 1:333 and 1:666, respectively, with fresh Mueller-Hinton broth . A volume of 50 µL of the inocula was added to each well. […] The exact inocula were determined by applying […] of 10-fold serial dilution of the bacterial suspensions on TSA. After overnight incubation at 35 °C, colony forming units were manually counted.
(§4) Microtiter plates were incubated during 24 h at 35 °C and were read using a microtiterplate reader (Molecular Devices) at 650 nm as well as by visual observation using a microtiterplate reading mirror.
(In general: Dilution methods test growth across graded concentrations, often in twofold steps.)

In series [2] the test system is E. faecalis ATCC 29212. As to the kind of experiment: Broth microdilution MIC (NCCLS). The series is classed as cell-based. The note with it: Enterococcus faecalis, ATCC29212, Mueller-Hinton Broth, 24 h at 35 °C. The procedure:
as §1, §2, §3, §4

Series [3] concerns E. faecalis VanB (Van^R). As to the kind of experiment: Broth microdilution MIC (NCCLS). Conditions: Enterococcus faecalis, Mueller-Hinton Broth, 24 h at 35 °C. In kind it is cell-based. The procedure:
as §1, §2, §3, §4

Series [4] deals with E. faecium A491 (Amp^R). As to the kind of experiment: Broth microdilution MIC (NCCLS). The series is classed as cell-based. Conditions: Enterococcus faecium, Mueller-Hinton Broth, 24 h at 35 °C. The procedure:
as §1, §2, §3, §4

The subject of series [5] is E. faecium ATCC 35667. As to the kind of experiment: Broth microdilution MIC (NCCLS). The series is classed as cell-based. Conditions: Enterococcus faecium, ATCC35667, Mueller-Hinton Broth, 24 h at 35 °C. The procedure: as §1, §2, §3, §4
The subject of series [6] is E. faecium VanA (Van^R). Put plainly: Broth microdilution MIC (NCCLS). In kind it is cell-based. The note with it: Enterococcus faecium, Mueller-Hinton Broth, 24 h at 35 °C. How it is done: as §1, §2, §3, §4
Series [7] deals with P. aeruginosa ATCC 27853. As to the kind of experiment: Broth microdilution MIC (NCCLS). In kind it is cell-based. The note with it: Pseudomonas aeruginosa, ATCC27853, Mueller-Hinton Broth, 24 h at 35 °C. How it is done:
as §1, §2, §3, §4

The subject of series [8] is S. aureus 76 (Meth^R)(lac^+). As to the kind of experiment: Broth microdilution MIC (NCCLS). The series is classed as cell-based. Conditions: Staphylococcus aureus, Mueller-Hinton Broth, 24 h at 35 °C. How it is done:
as §1, §2, §3, §4

The test system of series [9] is S. aureus ATCC 13709 (Meth^S). Put plainly: Broth microdilution MIC (NCCLS). In kind it is cell-based. The note with it: Staphylococcus aureus, ATCC13709, Mueller-Hinton Broth, 24 h at 35 °C. How it is done:
as §1, §2, §3, §4

Series [10] deals with S. aureus ATCC 29213. As to the kind of experiment: Broth microdilution MIC (NCCLS). In kind it is cell-based. The note with it: Staphylococcus aureus, ATCC29213, Mueller-Hinton Broth, 24 h at 35 °C. The procedure:
as §1, §2, §3, §4

The subject of series [11] is S. aureus ATCC 33593 (Meth^R). Put plainly: Broth microdilution MIC (NCCLS). The note with it: Staphylococcus aureus, ATCC33593, Mueller-Hinton Broth, 24 h at 35 °C. In kind it is cell-based. The procedure: as §1, §2, §3, §4
The subject of series [12] is S. aureus Col8A(Meth^S)(lac^-). As to the kind of experiment: Broth microdilution MIC (NCCLS). The note with it: Staphylococcus aureus, Mueller-Hinton Broth, 24 h at 35 °C. In kind it is cell-based. How it is done:
as §1, §2, §3, §4

Series [13] concerns S. aureus PC1 (Meth^S)(lac^+). As to the kind of experiment: Broth microdilution MIC (NCCLS). In kind it is cell-based. Conditions: Staphylococcus aureus, 24 h. The procedure:
as §1, §2, §3, §4

Series [14] concerns S. aureus Spain #356 (Meth^R). As to the kind of experiment: Broth microdilution MIC (NCCLS). Conditions: Staphylococcus aureus, Mueller-Hinton Broth, 24 h at 35 °C. In kind it is cell-based. How it is done: as §1, §2, §3, §4
The subject of series [15] is S. haemolyticus 05 (Meth^R). Put plainly: Broth microdilution MIC (NCCLS). In kind it is cell-based. Conditions: Staphylococcus haemolyticus, Mueller-Hinton Broth, 24 h at 35 °C. The procedure: as §1, §2, §3, §4
Series [16] is described as follows: In vitro stability of compounds in rat serum. The note with it: % loss after 60 min exposure to rat serum as determined by HPLC; 37 °C. The series is classed as in vitro ADME. How it is done: In general, compounds from the class of 7-acylamino-3-heteroarylthio-3-cephem carboxylic acids have higher chemical reactivity and lower stability towards chemical or enzymatic decomposition than most typical cephalosporins. […] Results shown in Table 2 represent percentage loss of the initial amount of cephalosporin compound upon 60 min incubation in rat serum.
Procedure for measuring degree of degradation of cephalosporin compounds in rat serum was as follows:
Fresh control rat serum (heparinized and stored frozen) is preincubated at 37 °C for 15 min in a shaking water bath. pH is measured using test strips. 25 µL of a 2 mg/mL solution cephalosporin compound (in water) of is then added to each matrix to make 1000 µL. Solutions were incubated at 37 °C. 100ul of solution was taken out at time = 0, 15, 30, and 60 min post dose and added 200 µL 4% trichloroacetic acid, vortexed, and centrifuged for 10 min at 14,000 rpm in an Eppendorfmicrocentrifuge. 25 µL of each supernatant was injected onto HPLC. Experiment was repeated using 25 µL of a 0.2 mg/mL cephalosporin compound. Degradation is measured as the percentage of HPLC peak area at time t relative to peak area at time 0.
HPLC conditions: Beckman Ultrasphere C18 column. 5u. 4.6mm x 25cm. 1 mL/min of 95% 0.1 M ammonium acetate, pH 6, 5% ACN going to 75% buffer/organic over 20min. UV monitored at 254 and 280 nm.

For series [17], the system named is S. aureus ATCC 13709 (Smith diffuse). Put plainly: Murine model for lethal bacteremic peritonitis (septicemia). In kind it is in vivo, mice. The note with it: Staphylococcus aureus, ATCC13709, sc; mice, S. aureus ATCC 13709 ip; subcutaneous treatment at 0 and 2 hrs post-challenge; probit method; no unit given for ED50 (doses in mg/kg); read-out: Efficacy in murine septicemia ED50. The procedure: 10 mice/group were injected intraperitoneally with 2.98x10^7 cfu S. aureus ATCC 13709 (Smith diffuse) and treated at 0 and 2hrs post-challenge with serial two-fold doses of new cephalosporin antibiotic, imipenem and vancomycin subcutaneously in order to determine the ED50. Male Swiss-Webster mice weighing originally 24.2 - 26.1 g were obtained from Charles Rivers Labs, Hollister, CA. Mice were housed 10 per cage and given free access to water and mouse chow.
Staphylococcus aureus ATCC 13709 (Smith diffuse) was grown overnight at 37 °C in Brain-heart Infusion broth (BHIB). The following morning, it was subcultured to fresh BHIB and incubated for 4-5h at 37 °C. The log-phase growth cells were washed once with physiological saline and adjusted to the desired concentration by correlation of absorbency at OD 600 nm with predetermined plate counts (NCCLS, 1994). The cell suspension was mixed with an equal volume of sterile 14% hog-gastric mucin (2). Inoculum was kept in an ice bath until used (<1h).
Mice were challenged via an injection of 0.5 mL bacterial suspension intraperitoneally. The bacterial challenge was 2.98 x 10^7 cfu/mouse.
Imipenem (Primaxin IV; Lot 7294A), vancomycin (Vancocin; Lot 8MU60W), and new cephalosporin antibiotic were prepared by serial two-fold dilutions to concentrations of 0.078 - 0.005 mg/mL, 1.2 - 0.075 mg/mL, 0.3 - 0.02 mg/mL, 0.3 - 0.02 mg/mL and 0.3 - 0.02 mg/mL respectively in sterile water (1). All antibiotics were administered subcutaneously in 0.1 mL volumes at 0 and 2 hours post-challenge. Concentrations of all compounds are based on the weight of the bioactive ingredients.
The 50% effective dose (ED50) was calculated by the probit method (3) utilizing a program entitled Probit (Nycomed-Salutar).

In the case of `C[C@@H](O)[C@H]1C(=O)N2C(C(=O)O)=C(SCCN=CN)C[C@H]12` [Imipenem, reference compound], the MIC was at most 0.25 µg/mL in [1]; at most 0.25 µg/mL in series [2]; 0.5 µg/mL (≈ 1.67 µM) in series [3]; over 128 µg/mL in series [4]; 4 µg/mL (≈ 13.4 µM) in [5]; 4 µg/mL (≈ 13.4 µM) in [6]. Further, the MIC is 1 µg/mL (≈ 3.34 µM) in [7]; 32 µg/mL (≈ 107 µM) in series [8]; at most 0.008 µg/mL in series [9]; at most 0.008 µg/mL in [10]; 32 µg/mL (≈ 107 µM) in series [11]; 0.015 µg/mL (≈ 0.0501 µM) in series [12]. Also, the MIC was 0.015 µg/mL (≈ 0.0501 µM) in series [13], 32 µg/mL (≈ 107 µM) in [14] and 64 µg/mL (≈ 214 µM) in series [15]. The degraded at 1 h in [16] amounted to 20%. For the same compound, the ED50 in series [17] was found to be 0.07 mg/kg.
